The values below come from PubChem BioAssay (NCI).

Each structure is given as a SMILES string.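 Exposure lasted 48 hours, with cells grown in 96-well plates and compounds tested at five concentrations. TGI marks complete inhibition of growth.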 A value given as a limit tells only on which side of the number the result lay.

One test deals with LOX IMVI melanoma. The experiment in a line: DTP human tumour cell line panel, 48 h.
The molecule `Cc1ccc(C(=O)N/N=C(\N=Nc2cccc([N+](=O)[O-])c2)c2ccc(N(CCC#N)CCC#N)cc2C)cc1` showed a TGI greater than 100 µM.
On the same count and under the same terms, to `O=C(O)c1c2c(cc3c1CC(Cc1ccccc1)C3=O)CCC2` (stereo not drawn) belongs greater than 100 µM.
Still for that read-out and setting: next, `OC(CC1CCCCN1)c1ccc2c(c1)oc1ccccc12` (stereo not drawn): greater than 100 µM.
Same read-out and setting: to `O=C1OC(CCCN2CCCCC2)(c2ccccc2)CC12CCCC2` (stereo not drawn) belongs greater than 100 µM.
As to `COC(=O)[C@@H]1C=C[C@H](OC2OC(COC(C)=O)C(OC(C)=O)C(OC(C)=O)C2OC(C)=O)n2c(=O)n(-c3ccccc3)c(=O)n21` (stereo partly drawn), the TGI turned out to be 3.09 µM. This lies in the single-digit micromolar range.
As to `CSc1c(C(=O)Nc2ccccc2)c(N)n(N)c(=O)c1C#N`, the TGI is greater than 100 µM.
The same measure, in the same setting: to `C=CCn1c(N)c(C#N)c(C#N)c1CCC` belongs greater than 100 µM.
Same read-out and setting: to `CC(C)(C)C1CCC(=O)/C(=C/CC2CC(=O)N(c3ccccc3)C(=O)C2)C1` (stereo not drawn) belongs 29.7 µM; to `COC(=O)C1=C(OC(=O)/C(=C/c2ccccc2)c2ccc(Cl)cc2Cl)C(C(=O)OC)[C@@]2(O)[C@@H](C(=O)OC)[C@H](C)C[C@@H]1[C@@H]2C(=O)OC` (stereo partly drawn), greater than 100 µM.
Still for that read-out and setting: next, `CS(=O)(=O)C(C#N)c1nc2ccccc2nc1Cl` (stereo not drawn): greater than 100 µM; `Cc1cc(C)nc(NS(=O)(=O)c2ccc(Nc3c4ccccc4nc4ccc(C(=O)Nc5ccc(S(N)(=O)=O)cc5)cc34)cc2)n1`: greater than 100 µM.
Take `CCOC(=O)/C=C(\C(=O)OCC)n1cc(C)c(=O)n(Cc2cn(CCCCOC(C)=O)nn2)c1=O`: the TGI was 23.1 µM.

The next test has as its system MALME-3M melanoma. The test is described as follows: DTP human tumour cell line panel, 48 h.
For the molecule `Cc1ccc(C(=O)N/N=C(\N=Nc2cccc([N+](=O)[O-])c2)c2ccc(N(CCC#N)CCC#N)cc2C)cc1`, the TGI amounted to 18.4 µM.
In turn, `O=C(O)c1c2c(cc3c1CC(Cc1ccccc1)C3=O)CCC2` (stereo not drawn) returned a TGI greater than 100 µM.
On the same count and under the same terms, next, `OC(CC1CCCCN1)c1ccc2c(c1)oc1ccccc12` (stereo not drawn): greater than 100 µM; `O=C1OC(CCCN2CCCCC2)(c2ccccc2)CC12CCCC2` (stereo not drawn): 55.7 µM; `COC(=O)[C@@H]1C=C[C@H](OC2OC(COC(C)=O)C(OC(C)=O)C(OC(C)=O)C2OC(C)=O)n2c(=O)n(-c3ccccc3)c(=O)n21` (stereo partly drawn): 4.07 µM.
As for `CSc1c(C(=O)Nc2ccccc2)c(N)n(N)c(=O)c1C#N`, the TGI was greater than 100 µM.
Same read-out and setting: to `C=CCn1c(N)c(C#N)c(C#N)c1CCC` belongs greater than 100 µM; to `CC(C)(C)C1CCC(=O)/C(=C/CC2CC(=O)N(c3ccccc3)C(=O)C2)C1` (stereo not drawn), 36.7 µM.
On the same count and under the same terms, next, `COC(=O)C1=C(OC(=O)/C(=C/c2ccccc2)c2ccc(Cl)cc2Cl)C(C(=O)OC)[C@@]2(O)[C@@H](C(=O)OC)[C@H](C)C[C@@H]1[C@@H]2C(=O)OC` (stereo partly drawn): greater than 100 µM.
Same read-out and setting: to `CS(=O)(=O)C(C#N)c1nc2ccccc2nc1Cl` (stereo not drawn) belongs greater than 100 µM; to `Cc1cc(C)nc(NS(=O)(=O)c2ccc(Nc3c4ccccc4nc4ccc(C(=O)Nc5ccc(S(N)(=O)=O)cc5)cc34)cc2)n1`, greater than 100 µM; to `CCOC(=O)/C=C(\C(=O)OCC)n1cc(C)c(=O)n(Cc2cn(CCCCOC(C)=O)nn2)c1=O`, 4.16 µM.

In another test the test system is MDA-N. The experiment in a line: DTP human tumour cell line panel, 48 h.
Take `Cc1ccc(C(=O)N/N=C(\N=Nc2cccc([N+](=O)[O-])c2)c2ccc(N(CCC#N)CCC#N)cc2C)cc1`: the concentration for total growth inhibition (TGI) is greater than 78.4 µM.
For the molecule `O=C(O)c1c2c(cc3c1CC(Cc1ccccc1)C3=O)CCC2` (stereo not drawn), the TGI was greater than 100 µM.
`OC(CC1CCCCN1)c1ccc2c(c1)oc1ccccc12` (stereo not drawn) displayed a TGI greater than 100 µM.
`O=C1OC(CCCN2CCCCC2)(c2ccccc2)CC12CCCC2` (stereo not drawn) displayed a TGI greater than 100 µM.
For `COC(=O)[C@@H]1C=C[C@H](OC2OC(COC(C)=O)C(OC(C)=O)C(OC(C)=O)C2OC(C)=O)n2c(=O)n(-c3ccccc3)c(=O)n21` (stereo partly drawn), the TGI amounted to 7.41 µM. This counts as single-digit micromolar.
Still for that read-out and setting: next, `CSc1c(C(=O)Nc2ccccc2)c(N)n(N)c(=O)c1C#N`: greater than 100 µM; `C=CCn1c(N)c(C#N)c(C#N)c1CCC`: greater than 100 µM; `CC(C)(C)C1CCC(=O)/C(=C/CC2CC(=O)N(c3ccccc3)C(=O)C2)C1` (stereo not drawn): 66.9 µM.
On to `COC(=O)C1=C(OC(=O)/C(=C/c2ccccc2)c2ccc(Cl)cc2Cl)C(C(=O)OC)[C@@]2(O)[C@@H](C(=O)OC)[C@H](C)C[C@@H]1[C@@H]2C(=O)OC` (stereo partly drawn), for which the TGI is greater than 100 µM.
Still for that read-out and setting: to `CS(=O)(=O)C(C#N)c1nc2ccccc2nc1Cl` (stereo not drawn) belongs greater than 100 µM.
`Cc1cc(C)nc(NS(=O)(=O)c2ccc(Nc3c4ccccc4nc4ccc(C(=O)Nc5ccc(S(N)(=O)=O)cc5)cc34)cc2)n1` registered a TGI greater than 100 µM.
On the same count and under the same terms, next, `CCOC(=O)/C=C(\C(=O)OCC)n1cc(C)c(=O)n(Cc2cn(CCCCOC(C)=O)nn2)c1=O`: 50.9 µM.

In a further test the test system is NCI-H226 lung. The experiment in a line: DTP human tumour cell line panel, 48 h.
Consider `Cc1ccc(C(=O)N/N=C(\N=Nc2cccc([N+](=O)[O-])c2)c2ccc(N(CCC#N)CCC#N)cc2C)cc1`, for which the TGI was greater than 26.2 µM.
`O=C(O)c1c2c(cc3c1CC(Cc1ccccc1)C3=O)CCC2` (stereo not drawn) yielded a TGI greater than 100 µM.
Same read-out and setting: next, `OC(CC1CCCCN1)c1ccc2c(c1)oc1ccccc12` (stereo not drawn): greater than 100 µM; `O=C1OC(CCCN2CCCCC2)(c2ccccc2)CC12CCCC2` (stereo not drawn): greater than 100 µM; `COC(=O)[C@@H]1C=C[C@H](OC2OC(COC(C)=O)C(OC(C)=O)C(OC(C)=O)C2OC(C)=O)n2c(=O)n(-c3ccccc3)c(=O)n21` (stereo partly drawn): 40.4 µM.
Take `CSc1c(C(=O)Nc2ccccc2)c(N)n(N)c(=O)c1C#N`: the TGI was greater than 100 µM.
As to `C=CCn1c(N)c(C#N)c(C#N)c1CCC`, the TGI was greater than 100 µM.
Regarding `CC(C)(C)C1CCC(=O)/C(=C/CC2CC(=O)N(c3ccccc3)C(=O)C2)C1` (stereo not drawn), the TGI came to 32 µM.
The same measure, in the same setting: to `COC(=O)C1=C(OC(=O)/C(=C/c2ccccc2)c2ccc(Cl)cc2Cl)C(C(=O)OC)[C@@]2(O)[C@@H](C(=O)OC)[C@H](C)C[C@@H]1[C@@H]2C(=O)OC` (stereo partly drawn) belongs greater than 100 µM; to `CS(=O)(=O)C(C#N)c1nc2ccccc2nc1Cl` (stereo not drawn), greater than 100 µM; to `Cc1cc(C)nc(NS(=O)(=O)c2ccc(Nc3c4ccccc4nc4ccc(C(=O)Nc5ccc(S(N)(=O)=O)cc5)cc34)cc2)n1`, greater than 100 µM.
The molecule `CCOC(=O)/C=C(\C(=O)OCC)n1cc(C)c(=O)n(Cc2cn(CCCCOC(C)=O)nn2)c1=O` had a TGI of 17.1 µM.
